Data as given in patent EP4556465A1, “NOVEL BICYCLIC PD-L1 INHIBITORS, PREPARATION METHODS THEREFOR AND MEDICINAL USES THEREOF” (priority 2022, dated 2024).

Legend:
[1] = Acute toxicity test, single oral gavage; assay type: in vivo; conditions: both sexes, rat, in vivo, po, SD rats, read-out: maximum tolerated dose (MTD)
Procedure: (§1) • Animal species and number: SD rats; 6 rats in each group (half male and half female); Mode of administration: oral gavage; […]; • Administration frequency: administration once.
(§2) Side-cage observation on the day of administration (D1): frequency and time of observation: side-cage observation of acute toxicity reactions was performed for 4 h after administration of animals in each group, and detailed clinical observations were performed on animals with apparent abnormal manifestations. Mortality, morbidity, respiration, secretion, feces, and diet, water drinking, etc. were observed, and changes in body weight of rats during administration were recorded. Detailed clinical observations include, but are not limited to, behavioral activities, skin, hair, eyes, ears, noses, abdomens, external genitalia, anuses, limbs, feet, and breathing. The animals in each group were euthanized at the end of the observation period, and all animals were dissected and gross observed.

[2] = tested on: SD rats; test: Acute toxicity test, single oral gavage; assay type: in vivo; conditions: 500 mg/kg, 1000 mg/kg and 2000 mg/kg
Procedure: as §1, §2

[3] = tested on: SD rats; test: Safety test after repeated administration for 14 days; assay type: in vivo; conditions: oral gavage 300 mg/kg once a day for 14 days
Procedure: • Animal species and number: SD rats; 6 rats in each group (half male and half female); Mode of administration: oral gavage; […]; • Administration frequency: administration once a day for 14 days.
as §2, with “Side-cage” for “Side-cage observation on the day of administration (D1): frequency and time of observation: side-cage”, “administration,” for “administration of animals in each group,”, “manifestations. General clinical observations included observation twice a day during the test (observation once in the morning and observation once in the afternoon).” for “manifestations.”, “administration,” for “the observation period,”

[4] = tested on: breast cancer tumor cells 4T1; conditions: 10 mg/kg, i.g., QD×21 days; for Tumor inhibition rate / tumor-inhibiting efficacy: 4T1 subcutaneous tumor
Procedure: Subsequently, each group of animals was dosed, and the day of first administration was defined as test day 1; • Administration frequency: once a day; • General state observations: observation time and frequency: once a day; observation indicators or content: including, but not limited to, local administration of the animals, appearance signs, general behavioral activity, mental status, death, and other abnormal manifestations. The animals were euthanized at the end of the test. • Calculation of tumor volume: V=1/2×long diameter×short diameter^2 (mm^3).

[5] = molecular target: T1, hPD-1/hPD-L1 (Homo sapiens, UniProt Q9NZQ7); test: PD-1/PD-L1 binding assay kit (CISBIO), HTRF assay of PD-1/PD-L1 protein-protein interaction; conditions: for inhibitory activity of PD-1/PD-L1 protein-protein interaction compared with BMS-202: HTRF, comparison with BMS-202
T1 construct: purchased CISBIO
T1 sequence (Q9NZQ7 19-238 limits assumed): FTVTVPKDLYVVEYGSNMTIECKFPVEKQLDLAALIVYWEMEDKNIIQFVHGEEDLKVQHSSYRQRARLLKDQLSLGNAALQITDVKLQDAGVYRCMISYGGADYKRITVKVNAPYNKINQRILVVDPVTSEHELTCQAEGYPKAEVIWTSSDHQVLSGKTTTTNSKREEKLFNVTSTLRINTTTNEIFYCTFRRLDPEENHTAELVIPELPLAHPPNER
Procedure: Experimental objective: the activity of the compounds of formula (I) to inhibit the PD-1/PD-L1 interaction was tested by using a PD-1/PD-L1 binding assay kit (CISBIO).
Experimental principle: HTRF (Homogeneous Time-Resolved Fluorescence) is a technique used to detect substances to be tested in pure liquid phase systems. It primarily utilizes energy transfer of two fluorescent groups, which are divided into an energy donor europium (Eu^+) and an energy acceptor. When the donor is externally excited (e.g., a flash lamp or laser), the energy can be resonantly transferred to the acceptor if the donor is close enough to the acceptor, and the acceptor is excited at a specific wavelength. By using the HTRF technology, the assay enables simple and rapid characterization of compounds and antibody blockers in a high-throughput format. By using anti-Tag1 labeled with Eu^+ (Europium) (the HTRF energy donor) and anti-Tag2 labeled with XL665 (the HTRF energy acceptor), the interaction between PD-L1 and PD-1 can be detected. PD-L1 protein and PD-1 protein are labeled with Tag1 and Tag2, respectively, and Eu^+ and XL665 bind to PD-L1 and PD-1, respectively, through antibodies to form complexes. […] This specific signal is directly proportional to the degree of PD1/PD-L1 interaction.
Experimental materials: kit: PD-1/PD-L1 binding assay kits purchased from CISBIO; and 96-well plate: purchased from CISBIO.
Test instrument: Perkin Elmer, model: EnVision.
Test compounds: the compounds in formula (I).
Experimental procedure: PD-1/PD-L1 binding assay kits were used. […] The plates were sealed by using microplate sealers, centrifuging was performed at 1000 rpm for 1 min, and incubation was performed at room temperature for 15 min. The Anti-Tag-Eu^3+ and Anti-tag-XL665 which were diluted with Buffer were then mixed in equal volumes, then 10 µL of the mixed solution was added to each well, the sealed plates were centrifuged at 1000 rpm for 1 min, and incubation was performed at room temperature for 2 h. […] IC50 of the compounds was calculated by using Graphpad.

Q: For `O=C(O)CN1CCc2nc(OCc3cccc(-c4ccccc4F)c3Cl)ccc2C1` [I-D-26, 2-(2-((2-chloro-2'-fluoro-[1,1'-biphenyl]-3-yl)methoxy)-7,8-dihydro-1,6-naphthyridin-6(5H)-yl)acetic acid], which MTD [1] is on record?
A: ≥ 2000 mg/kg

Q: And the “gross observation, test sample-related changes” value [2]?
A: No test sample-related changes were observed grossly

Q: And the mortality or moribundity [2]?
A: No mortality or moribundity was observed

Q: What about the “clinical observations (water intake, food intake, activity, body weight)” value (from here on “clinical observations”) [3] of the same compound?
A: normal water intake and food intake, normal activity, and normal body weight, with no significant abnormalities

Q: And the Tumor inhibition rate [4]?
A: +++ ("+++" indicates a tumor inhibition rate of more than 60%)

Q: What about the tumor-inhibiting efficacy [4] of the same compound?
A: significant tumor-inhibiting efficacy

Q: For `OCCN1CCc2nc(OCc3cccc(-c4ccccc4F)c3Cl)ccc2C1` [I-D-18, 2-(2-((2-chloro-2'-fluoro-[1,1'-biphenyl]-3-yl)methoxy)-7,8-dihydro-1,6-naphthyridin-6(5H)-yl)ethan-1-ol], which IC50 [5] is on record?
A: 16.3 nM

Q: And the “inhibitory activity of PD-1/PD-L1 protein-protein interaction compared with BMS-202” value [5]?
A: superior to that of the compound BMS-202

Q: What about the “gross observation, test sample-related changes” value [2] of the same compound?
A: No test sample-related changes were observed grossly

Q: And the mortality or moribundity [2]?
A: No mortality or moribundity was observed

Q: What about the “clinical observations” value [3] of the same compound?
A: normal water intake and food intake, normal activity, and normal body weight, with no significant abnormalities

Q: And the “general state of tumor-bearing animals during administration (water and food intake, activity, body weight, toxicity)” value [4]?
A: normal water intake and food intake, normal activity, normal body weight, and no toxicity manifestations

Q: And the Tumor inhibition rate [4]?
A: +++ ("+++" indicates a tumor inhibition rate of more than 60%)

Q: What about the tumor-inhibiting efficacy [4] of the same compound?
A: significant tumor-inhibiting efficacy

Q: For `Fc1ccccc1-c1cccc(COc2ccc3c(n2)CCNC3)c1Cl` [I-D-27, 2-((2-chloro-2'-fluoro-[1,1'-biphenyl]-3-yl)methoxy)-5,6,7,8-tetrahydro-1,6-naphthyridine], which IC50 [5] is on record?
A: 10.1 nM

Q: And the “inhibitory activity of PD-1/PD-L1 protein-protein interaction compared with BMS-202” value [5]?
A: superior to that of the compound BMS-202

Q: What about the MTD [1] of the same compound?
A: ≥ 2000 mg/kg

Q: What about the “gross observation, test sample-related changes” value [2] of the same compound?
A: No test sample-related changes were observed grossly

Q: What about the mortality or moribundity [2] of the same compound?
A: No mortality or moribundity was observed

Q: What about the “clinical observations” value [3] of the same compound?
A: normal water intake and food intake, normal activity, and normal body weight, with no significant abnormalities

Q: And the “general state of tumor-bearing animals during administration (water and food intake, activity, body weight, toxicity)” value [4]?
A: normal water intake and food intake, normal activity, normal body weight, and no toxicity manifestations

Q: And the Tumor inhibition rate [4]?
A: +++ ("+++" indicates a tumor inhibition rate of more than 60%)

Q: And the tumor-inhibiting efficacy [4]?
A: significant tumor-inhibiting efficacy
